Source: patent US20160158179A1, “NANOEMULSION THERAPEUTIC COMPOSITIONS AND METHODS OF USING THE SAME” (THE REGENTS OF THE UNIVERSITY OF MICHIGAN, priority 2008, published 2016)
≈ marks a conversion by molar mass, not a printed value.

Key:
[1] = tested on: Stenotrophomonas maltophilia; test: MIC and MBC determination (CLSI, alamar blue), CF isolates; conditions: Stenotrophomonas
Burkholderia cenocepacia = test: as above
Acinetobacter baumannii = test: MIC and MBC determination (CLSI, alamar blue); conditions: Acinetobacter
Pseudomonas aeruginosa = test: MIC and MBC determination (CLSI, alamar blue), CF isolates; conditions: Pseudomonas
[2] = tested on: methicillin-resistant Staphylococcus aureus (MRSA) clinical isolates; test: MIC and MBC susceptibility assays (CLSI); format: cell-based; conditions: for MIC50 (15): MRSA clinical isolates, value at rank 15 of 29
Acinetobacter strains = test: Checkerboard synergy study (FIC/FBC index); format: cell-based, Acinetobacter baumannii; conditions: in combination with P4075EC+EDTA
Burkholderia strains = test: Checkerboard synergy study (FIC/FBC index); format: cell-based, Burkholderia cenocepacia; conditions: in combination with P4075EC+EDTA
Stenotrophomonas strains = test: Checkerboard synergy study (FIC/FBC index); format: cell-based, Stenotrophomonas maltophilia; conditions: in combination with P4075EC+EDTA
[3] = share of 10 Acinetobacter strains with synergy
[4] = share of 10 Burkholderia strains with synergy
[5] = share of 10 Stenotrophomonas strains with synergy

CO[C@@]1(NC(=O)Cc2cccs2)C(=O)N2C(C(=O)O)=C(COC(N)=O)CS[C@@H]21 [Cefoxitin]
MIC 50 [1]: >256 µg/mL
MIC 90 [1]: >256 µg/mL
MIC 90 (Burkholderia cenocepacia; Burkholderia): 256 µg/mL (≈ 599 µM)
MIC 50 (Acinetobacter baumannii): >256 µg/mL
MIC 90 (Acinetobacter baumannii): >256 µg/mL
MIC 50 (Pseudomonas aeruginosa): >256 µg/mL
MIC 90 (Pseudomonas aeruginosa): >256 µg/mL

CC(C)(O/N=C(\C(=O)N[C@@H]1C(=O)N2C(C(=O)[O-])=C(C[n+]3ccccc3)CS[C@H]12)c1csc(N)n1)C(=O)O [Ceftazidime]
MIC 50 [1]: >32 µg/mL
MIC 90 [1]: >32 µg/mL
MIC 90 (Burkholderia cenocepacia; Burkholderia): 16 µg/mL (≈ 29.3 µM)
MIC 50 (Burkholderia cenocepacia; Burkholderia cenocepacia): 8 µg/mL (≈ 14.6 µM)
MIC 90 (Burkholderia cenocepacia; Burkholderia cenocepacia): 16 µg/mL (≈ 29.3 µM)
MIC 50 (Acinetobacter baumannii): >32 µg/mL
MIC 90 (Acinetobacter baumannii): >32 µg/mL

C[C@H]1c2cccc(O)c2C(O)=C2C(=O)[C@]3(O)C(O)=C(C(N)=O)C(=O)[C@@H](N(C)C)[C@@H]3[C@@H](O)[C@@H]21 [Dox]
MIC50 (15) [2]: 0.25 µg/mL (≈ 0.563 µM)

CC[C@H]1OC(=O)[C@H](C)[C@@H](O[C@H]2C[C@@](C)(OC)[C@@H](O)[C@H](C)O2)[C@H](C)[C@@H](O[C@@H]2O[C@H](C)C[C@H](N(C)C)[C@H]2O)[C@](C)(O)C[C@@H](C)C(=O)[C@H](C)[C@@H](O)[C@]1(C)O [Eryth]
MIC50 (15) [2]: 64 µg/mL (≈ 87.2 µM)

C[C@H]1COc2c(N3CCN(C)CC3)c(F)cc3c(=O)c(C(=O)O)cn1c23 [Levo]
MIC50 (15) [2]: 8 µg/mL (≈ 22.1 µM)

C[C@H]1COc2c(N3CCN(C)CC3)c(F)cc3c(=O)c(C(=O)O)cn1c23 [Levofloxacin]
MIC 50 [1]: 2 µg/mL (≈ 5.53 µM)
MIC 90 [1]: 8 µg/mL (≈ 22.1 µM)
MIC 90 (Burkholderia cenocepacia; Burkholderia): 8 µg/mL (≈ 22.1 µM)
MIC 50 (Burkholderia cenocepacia; Burkholderia cenocepacia): 2 µg/mL (≈ 5.53 µM)
MIC 90 (Burkholderia cenocepacia; Burkholderia cenocepacia): 8 µg/mL (≈ 22.1 µM)
MIC 50 (Acinetobacter baumannii): 16 µg/mL (≈ 44.3 µM)
MIC 90 (Acinetobacter baumannii): >16 µg/mL
MIC 50 (Pseudomonas aeruginosa): 0.5 µg/mL (≈ 1.38 µM)
MIC 90 (Pseudomonas aeruginosa): 8 µg/mL (≈ 22.1 µM)

Cc1onc(-c2ccccc2)c1C(=O)N[C@@H]1C(=O)N2[C@@H]1SC(C)(C)[C@@H]2C(=O)O [Ox]
MIC50 (15) [2]: >16 µg/mL

NC[C@H]1O[C@H](O[C@H]2[C@H](O)[C@@H](O[C@H]3O[C@H](CO)[C@@H](O)[C@H](N)[C@H]3O)[C@H](N)C[C@@H]2N)[C@H](N)C[C@@H]1O [Tobra]
FBC (Acinetobacter strains; isolate NB31): 1.50
FIC (Acinetobacter strains; isolate NB31): 0.98
Synergy (FBC) (Acinetobacter strains; isolate NB31): no
Synergy (FIC) (Acinetobacter strains; isolate NB31): indifferent
FBC (Acinetobacter strains; isolate NB32): 1.79
FIC (Acinetobacter strains; isolate NB32): 0.88
Synergy (FBC) (Acinetobacter strains; isolate NB32): no
Synergy (FIC) (Acinetobacter strains; isolate NB32): indifferent
FBC (Acinetobacter strains; isolate NB33): 1.75
FIC (Acinetobacter strains; isolate NB33): 1.27
Synergy (FBC) (Acinetobacter strains; isolate NB33): no
Synergy (FIC) (Acinetobacter strains; isolate NB33): indifferent
FBC (Acinetobacter strains; isolate NB34): 0.24
FIC (Acinetobacter strains; isolate NB34): 0.41
Synergy (FBC) (Acinetobacter strains; isolate NB34): yes
Synergy (FIC) (Acinetobacter strains; isolate NB34): yes
FBC (Acinetobacter strains; isolate NB35): 1.44
FIC (Acinetobacter strains; isolate NB35): 1.21
Synergy (FBC) (Acinetobacter strains; isolate NB35): no
Synergy (FIC) (Acinetobacter strains; isolate NB35): indifferent
FIC (Acinetobacter strains; isolate NB36): 3.30
Synergy (FBC) (Acinetobacter strains; isolate NB36): no
Synergy (FIC) (Acinetobacter strains; isolate NB36): indifferent
FBC (Acinetobacter strains; isolate NB37): 1.72
FIC (Acinetobacter strains; isolate NB37): 0.75
Synergy (FBC) (Acinetobacter strains; isolate NB37): no
Synergy (FIC) (Acinetobacter strains; isolate NB37): indifferent
FIC (Acinetobacter strains; isolate NB38): 1.05
Synergy (FBC) (Acinetobacter strains; isolate NB38): no
Synergy (FIC) (Acinetobacter strains; isolate NB38): indifferent
FBC (Acinetobacter strains; isolate NB39): 3.52
FIC (Acinetobacter strains; isolate NB39): 3.30
Synergy (FBC) (Acinetobacter strains; isolate NB39): no
Synergy (FIC) (Acinetobacter strains; isolate NB39): indifferent
FBC (Acinetobacter strains; isolate NB40): 3.01
FIC (Acinetobacter strains; isolate NB40): 3.01
Synergy (FBC) (Acinetobacter strains; isolate NB40): no
Synergy (FIC) (Acinetobacter strains; isolate NB40): indifferent
% FBC Synergy (Acinetobacter strains; [3]): 10%
% FIC Synergy (Acinetobacter strains; [3]): 10%
FBC (Burkholderia strains; isolate NB21): 0.48
FIC (Burkholderia strains; isolate NB21): 0.27
Synergy (FBC) (Burkholderia strains; isolate NB21): yes
Synergy (FIC) (Burkholderia strains; isolate NB21): yes
FIC (Burkholderia strains; isolate NB22): 0.35
Synergy (FBC) (Burkholderia strains; isolate NB22): indifferent
Synergy (FIC) (Burkholderia strains; isolate NB22): yes
Synergy (FBC) (Burkholderia strains; isolate NB23): indifferent
Synergy (FIC) (Burkholderia strains; isolate NB23): indifferent
Synergy (FBC) (Burkholderia strains; isolate NB24): indifferent
Synergy (FIC) (Burkholderia strains; isolate NB24): indifferent
FBC (Burkholderia strains; isolate NB25): 0.99
Synergy (FBC) (Burkholderia strains; isolate NB25): indifferent
Synergy (FIC) (Burkholderia strains; isolate NB25): indifferent
FBC (Burkholderia strains; isolate NB26): 0.92
FIC (Burkholderia strains; isolate NB26): 0.12
Synergy (FBC) (Burkholderia strains; isolate NB26): indifferent
Synergy (FIC) (Burkholderia strains; isolate NB26): yes
Synergy (FBC) (Burkholderia strains; isolate NB27): indifferent
Synergy (FIC) (Burkholderia strains; isolate NB27): indifferent
FIC (Burkholderia strains; isolate NB28b): 0.54
Synergy (FBC) (Burkholderia strains; isolate NB28b): indifferent
Synergy (FIC) (Burkholderia strains; isolate NB28b): yes
FBC (Burkholderia strains; isolate NB29): 0.07
FIC (Burkholderia strains; isolate NB29): 0.32
Synergy (FBC) (Burkholderia strains; isolate NB29): yes
Synergy (FIC) (Burkholderia strains; isolate NB29): yes
FBC (Burkholderia strains; isolate NB30): 0.54
FIC (Burkholderia strains; isolate NB30): 0.27
Synergy (FBC) (Burkholderia strains; isolate NB30): yes
Synergy (FIC) (Burkholderia strains; isolate NB30): yes
% FBC Synergy (Burkholderia strains; [4]): 30%
% FIC Synergy (Burkholderia strains; [4]): 50%
FIC (Stenotrophomonas strains; isolate NB42): 0.14
Synergy (FBC) (Stenotrophomonas strains; isolate NB42): indifferent
Synergy (FIC) (Stenotrophomonas strains; isolate NB42): yes
FIC (Stenotrophomonas strains; isolate NB43): 1.40
Synergy (FBC) (Stenotrophomonas strains; isolate NB43): indifferent
Synergy (FIC) (Stenotrophomonas strains; isolate NB43): indifferent
FIC (Stenotrophomonas strains; isolate NB44): 1.5
Synergy (FBC) (Stenotrophomonas strains; isolate NB44): indifferent
Synergy (FIC) (Stenotrophomonas strains; isolate NB44): indifferent
FBC (Stenotrophomonas strains; isolate NB45): 1.50
FIC (Stenotrophomonas strains; isolate NB45): 0.97
Synergy (FBC) (Stenotrophomonas strains; isolate NB45): indifferent
Synergy (FIC) (Stenotrophomonas strains; isolate NB45): indifferent
% FBC Synergy (Stenotrophomonas strains; [5]): 0%
% FIC Synergy (Stenotrophomonas strains; [5]): 20%

CN[C@H](CC(C)C)C(=O)N[C@H]1C(=O)N[C@@H](CC(N)=O)C(=O)N[C@H]2C(=O)N[C@H]3C(=O)N[C@H](C(=O)N[C@H](C(=O)O)c4cc(O)cc(O)c4-c4cc3ccc4O)[C@H](O)c3ccc(c(Cl)c3)Oc3cc2cc(c3O[C@@H]2O[C@H](CO)[C@@H](O)[C@H](O)[C@H]2O[C@H]2C[C@](C)(N)[C@H](O)[C@H](C)O2)Oc2ccc(cc2Cl)[C@H]1O [Vanco]
MIC50 (15) [2]: 1 µg/mL (≈ 0.69 µM)

CCC[C@@H]1C[C@@H](C(=O)N[C@@H]([C@H]2O[C@H](SC)[C@H](O)[C@@H](O)[C@H]2O)[C@H](C)Cl)N(C)C1 [clind]
MIC50 (15) [2]: >64 µg/mL

C[C@H]1c2cccc(O)c2C(O)=C2C(=O)[C@]3(O)C(O)=C(C(N)=O)C(=O)[C@@H](N(C)C)[C@@H]3[C@@H](O)[C@@H]21 [doxycyline, doxycycline]
MIC 90 ([2]; clinical isolates of MRSA): 4 µg/mL (≈ 9 µM)
